# Test results from patent publication US20050222263A1, “Compositions against stress-related diseases and methods for treating stress-related diseases” (Ajinomoto Co., Inc., priority 2002, published 2005).
# How the values were obtained:
# [1] = test system: model for gastric ulcer caused by water immersion under restraint; assay: water-immersion restraint stress gastric ulcer model, intragastric hemorrhage; type: in vivo, Wistar male rats; conditions: in powdered feed; paroxetine 298 mg/kg diet, lysine hydrochloride 13.3 g/kg diet, arginine 13.3 g/kg diet; water-immersion restraint stress 5 hours
# Procedure: A widely used model for gastric ulcer caused by water immersion under restraint was used. That is, rats were placed in a stress cage and immersed in water to the chest for 5 hours (at a temperature of 22-25° C.). The stomach was removed and the degree of intragastric hemorrhage was observed and the hemorrhage area was calculated using an NHI image software.
# The test compound was evaluated as follows. Five-week-old Wistar male rats were divided into three groups. The first group was bred with a normal powdered feed; the second group with a powdered feed to which was added a selective serotonin reuptake inhibitor (SSRI) (paroxetine; Glaxo-SmithKline; 298 mg/kg diet) alone; and the third group with a powdered feed containing the same amount of the same SSRI and lysine hydrochloride (13.3 g/kg diet) to which was additionally added arginine (13.3 g/kg diet). Each group consisted of 10 animals. Rats could freely feed before they reached 14 weeks of age. Thereafter, no feed and water were given for 2 days, and on day 3, all of the rats were subjected to the water-immersion restraint stress for 5 hours.
# [2] = test system: animal model of irritable bowel syndrome (wrap-restraint stress); assay: wrap-restraint stress irritable bowel syndrome model, amount of feces excreted; type: in vivo, Wistar male rats; conditions: oral, 40 minutes before wrap-restraint stress; lysine hydrochloride 1 g/kg, alprazolam 10 mg/kg; vs control
# Procedure: An animal model of irritable bowel syndrome was prepared according to the method as described by Williams et al. (Williams, C. L., Villar, R. G., Peterson, J. M., Burks, T. F., “Stress-induced changes in intestinal transit in the rat: a model for irritable bowel syndrome,” Gastroenterol., vol. 94, pp. 611-621 (1988)). That is, a cotton tape was placed around the anterior limbs of seven-week-old Wistar male rats, the rats were kept in a bracket cage, and then the amount of feces excreted during 2 hours was measured. A test compound was orally administered 40 minutes before starting the wrap-restraint stress. The following groups were examined: 1) control group; 2) a group to which lysine hydrochloride (1 g/kg) alone was given; 3) a group to which a minor tranquilizer alprazolam (10 mg/kg; Takeda Chem. Ind.) alone was given; and 4) a combination group to which lysine hydrochloride (1 g/kg) and alprazolam (10 mg/kg) were given. Each group consisted of 10 animals.
smiles,measurement,setting,value
"Fc1ccc([C@@H]2CCNC[C@H]2COc2ccc3c(c2)OCO3)cc1 [SSRI, paroxetine]",intragastric hemorrhage (hemorrhage area),[1],significantly exacerbated the intragastric hemorrhage
Cc1nnc2n1-c1ccc(Cl)cc1C(c1ccccc1)=NC2 [alprazolam],effect on stress-induced increase of amount of feces excreted during 2 hours,[2],no clear effect was observed
Cl.NCCCC[C@H](N)C(=O)O [lysine hydrochloride],effect on stress-induced increase of amount of feces excreted during 2 hours,[2],no clear effect was observed
